Tests used:
[1] = target: T1, Brassica napus diacylglycerol acyltransferase 1 (BnaDGAT1, isoform BnaC.DGAT1.a) (Brassica napus, UniProt Q9M4V2); test: ITC ([…] stoichiometry); supported by CD; type: binding
T1 construct: gene DGAT1-4; BnaDGAT1_1-113, cytoplasmic N-terminal domain (residues 1-113), N-terminal 10 x His-tag
T1 sequence (Q9M4V2 1-113): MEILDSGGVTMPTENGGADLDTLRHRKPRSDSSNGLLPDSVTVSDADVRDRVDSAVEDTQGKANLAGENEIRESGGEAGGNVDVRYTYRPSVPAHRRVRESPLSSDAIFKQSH

[2] = target: T1, Brassica napus diacylglycerol acyltransferase 1 (BnaDGAT1, isoform BnaC.DGAT1.a); test: ITC ([…] stoichiometry); supported by thermal shift (about […] degree Tm increase) and CD; type: binding

CC(C)(COP(=O)(O)OP(=O)(O)OC[C@H]1O[C@@H](n2cnc3c(N)ncnc32)[C@H](O)[C@@H]1OP(=O)(O)O)[C@@H](O)C(=O)NCCC(=O)NCCS [CoA]
Kd [1]: 60 ± 10 µM

CCCCCCCC/C=C\CCCCCCCC(=O)SCCNC(=O)CCNC(=O)[C@H](O)C(C)(C)COP(=O)(O)OP(=O)(O)OC[C@H]1O[C@@H](n2cnc3c(N)ncnc32)[C@H](O)[C@@H]1OP(=O)(O)O [oleoyl-CoA]
Kd [2]: 10 ± 0.01 µM
